# Experiments:
# [1] = system: ESKAPE bacteria: S. aureus MRSA (ATCC 43300), E. coli (ATCC 25922), K. pneumoniae (ATCC 700603), A. baumannii (ATCC 19606) and P. aeruginosa (ATCC 27853); experiment: MIC against ESKAPE pathogens, aerobic; assay type: cell-based; details: aerobic conditions, single concentration screen, n = 3
# Method: All compounds were tested for activity against a set of anaerobic C. difficile bacteria (630 ATCC BAA-1382, NAP1/027 M7404, NAP1/027 ATCC BAA-1803, VPI10463 ATCC 43255, CD26A54_S and CD26A54_R) and representative ESKAPE pathogens S. aureus (MRSA ATCC 43300), E. coli (ATCC 25922), K. pneumoniae (ATCC 700603), A. baumannii (ATCC 19606) and P. aeruginosa (ATCC 27853) using a standard broth microdilution assay. Selected compounds were tested for activity against H. pylori strains (26695, and clinical isolates MtzS 13/25, MtzR 98/285 and MtzR 13/61) using agar plate dilution, and for antimicrobial activity against twelve Gram-positive bacterial strains: Enterococcus faecalis (VanA clinical isolate), Enterococcus faecium (MDR VanA ATCC 51559), Streptococcus pneumoniae (MDR ATCC 700677), S. aureus (MRSA ATCC 43300, MRSA clinical isolate, MRSA/DRSA clinical isolate, GISA NARSA NRS 1, GISA NARSA NRS 17, VRSA NARSA VRS1, VRSA NARSA VRS4 and VRSA NARSA VRS10) using broth microdilution. C. difficile strains were grown at 37 °C in a COY anaerobic chamber (5% H2, 10% CO2, 85% N2). H. pylori strains were grown at 37 °C under a microaerobic atmosphere (5% O2, 10% CO2). All facultative anaerobic bacteria were grown at 37 °C with normal atmospheric oxygen levels. […] Positive growth control of bacteria and DMSO as well as a negative control of only media were included for every plate. Full assay details are provided in the supplementary information.
# MICs were determined by a two-fold serial broth micro dilution according to the recommendation of CLSI standards with an inoculum of 5 × 10^5 CFU/mL^4 The compounds along with standard antibiotics were serially diluted twofold across the wells of 96-well non-binding surface plates (NBS, Corning). […] Gram-positive and Gram-negative bacteria were cultured in Mueller Hinton broth (MHB) (Bacto laboratories, Cat. no. 211443) at 37 °C overnight. A sample of each culture was then diluted 40-fold in fresh MHB broth and incubated at 37 °C for 2-3 h. The resultant mid-log phase cultures were diluted to the final concentration of 5 × 10^5 CFU/mL, then 50 μL was added to each well of the compound containing 96-well plates. All the plates were covered and incubated at 37 °C for 24 h.
# [2] = Cytotoxicity, resazurin, HepG2; assay type: cell-based; details: human
# Method: (§1) Compounds were tested for cytotoxicity against mammalian HepG2 and HEK293 cell lines, as detailed in the supplementary information.
# (§2) HEK293 and HepG2 cells were seeded as 3000 and 5000 cells per well in 384-well plates, respectively. Cells were cultured in DMEM with 1% FBS for 24 hours at 37 °C, 5% CO2. Then a dilution series of compounds was added into each well, with the highest concentration of 100 µM. […] After 24 hours incubation with the compounds, 5 µM resazurin were added into each well and incubated at 37 °C for 2 hours. As a negative control, 1% Triton X-100 was added into the culture media to lyse all the cells. The fluorescence intensity was read using Polarstar Omega with excitation/emission 560/590. The data was analysed by GraphPad Prism software. Results are presented as the average percentage of control ± SD using the following equation: Percentage of Growth = (FITEST – FINegative/FIUNTREATED –FINegative)*100.
# [3] = Cytotoxicity, resazurin, HEK293; assay type: cell-based; details: human
# Method: as §1, §2
# [4] = system: C. difficile NAP1/027 CD26A54_R; parameters: method as in PMID 24400070; details: cited from earlier work
# [5] = system: 8 additional drug resistant S. aureus strains, vancomycin resistant E. faecalis, vancomycin resistant E. faecium and multidrug resistant S. pneumoniae; experiment: MIC broth microdilution, drug resistant Gram-positive panel; assay type: cell-based; details: all strains of the panel
# Method: All compounds were tested for activity against a set of anaerobic C. difficile bacteria (630 ATCC BAA-1382, NAP1/027 M7404, NAP1/027 ATCC BAA-1803, VPI10463 ATCC 43255, CD26A54_S and CD26A54_R) and representative ESKAPE pathogens S. aureus (MRSA ATCC 43300), E. coli (ATCC 25922), K. pneumoniae (ATCC 700603), A. baumannii (ATCC 19606) and P. aeruginosa (ATCC 27853) using a standard broth microdilution assay. Selected compounds were tested for activity against H. pylori strains (26695, and clinical isolates MtzS 13/25, MtzR 98/285 and MtzR 13/61) using agar plate dilution, and for antimicrobial activity against […] Gram-positive bacterial strains: Enterococcus faecalis (VanA clinical isolate), Enterococcus faecium (MDR VanA ATCC 51559), Streptococcus pneumoniae (MDR ATCC 700677), S. aureus (MRSA ATCC 43300, MRSA clinical isolate, MRSA/DRSA clinical isolate, GISA NARSA NRS 1, GISA NARSA NRS 17, VRSA NARSA VRS1, VRSA NARSA VRS4 and VRSA NARSA VRS10) using broth microdilution. C. difficile strains were grown at 37 °C in a COY anaerobic chamber (5% H2, 10% CO2, 85% N2). H. pylori strains were grown at 37 °C under a microaerobic atmosphere (5% O2, 10% CO2). All facultative anaerobic bacteria were grown at 37 °C with normal atmospheric oxygen levels. All experiments were performed in duplicate with metronidazole, vancomycin, linezolid or colistin as positive controls for relevant strains (see Table 1). Positive growth control of bacteria and DMSO as well as a negative control of only media were included for every plate. Full assay details are provided in the supplementary information.
# MICs were determined by a two-fold serial broth micro dilution according to the recommendation of CLSI standards with an inoculum of 5 × 10^5 CFU/mL^4 The compounds along with standard antibiotics were serially diluted twofold across the wells of 96-well non-binding surface plates (NBS, Corning). Standards ranged from 64 to 0.03 μg/mL, and the compounds from 128 to 0.06 μg/mL with final volumes of 50 μL per well. Gram-positive and Gram-negative bacteria were cultured in Mueller Hinton broth (MHB) (Bacto laboratories, Cat. no. 211443) at 37 °C overnight. A sample of each culture was then diluted 40-fold in fresh MHB broth and incubated at 37 °C for 2-3 h. The resultant mid-log phase cultures were diluted to the final concentration of 5 × 10^5 CFU/mL, then 50 μL was added to each well of the compound containing 96-well plates. All the plates were covered and incubated at 37 °C for 24 h.
Compound,MIC ESKAPE bacteria [1] [µg/mL],CC50 at 24 h [2] [µM],CC50 at 24 h [3] [µM],"MIC to metronidazole in broth, MtzR C. difficile, reported by Chong et al. [4] [µg/mL]","CC50 at 24 h ([2]; no cytotoxicity up to 100 μM, 24 hours incubation, read-out: CC50 HepG2) [µM]","CC50 at 24 h ([3]; no cytotoxicity up to 100 μM, 24 hours incubation, read-out: CC50 HEK293) [µM]",MIC against panel of drug resistant Gram-positive strains [5] [µg/mL]
"Cc1ncc([N+](=O)[O-])n1CCO [Compound 1, metronidazole]",>32,> 100,> 100,8,–,–,–
"Cc1ncc([N+](=O)[O-])n1CCN=[N+]=[N-] [Compound 3, 1-(2-azidoethyl)-2-methyl-5-nitro-1H-imidazole]",>32,–,–,–,> 100,> 100,> 64
